Assay results from PubChem BioAssay AID256 (DTP/NCI, 2004).
Toxic doses and inconclusive results are not listed.

Tested on: CD2F1 mice, L1210 leukemia ip, survival T/C
Test: NCI In Vivo Anticancer Drug Screen. Data for tumor model L1210 Leukemia (intraperitoneal) in CD2F1 (CDF1) mice
Conditions: endpoint: mean survival time, higher = longer survival
Outline: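 In this screen, transplantable tumors were grown in mice given either the compound or its vehicle. Results were expressed as the treated measurement relative to the control measurement.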

## Cn1cnc([N+](=O)[O-])c1Sc1nc(N)nc2nc[nH]c12
dose: 5.0 mg/kg/injection, schedule: Q03DX003 (ip), vehicle: Klucel (hydroxypropylcellulose) (HPC)
  T/C: 153 % of control
dose: 10.0 mg/kg/injection, schedule: Q01DX007 (ip), vehicle: Klucel (hydroxypropylcellulose) (HPC)
  T/C: 122 % of control
dose: 10.0 mg/kg/injection, schedule: Q03DX003 (ip), vehicle: Klucel (hydroxypropylcellulose) (HPC)
  T/C: 160 % of control
dose: 20.0 mg/kg/injection, schedule: Q01DX007 (ip), vehicle: Klucel (hydroxypropylcellulose) (HPC)
  T/C: 117 % of control
dose: 20.0 mg/kg/injection, schedule: Q03DX003 (ip), vehicle: Klucel (hydroxypropylcellulose) (HPC)
  T/C: 154 % of control

## C=CN(C)OC
dose: 100.0 mg/kg/injection, schedule: Q01DX001 (ip), vehicle: saline
  T/C: 100 % of control

## O=c1[nH]cc(N(CCCl)CCCl)c(=O)[nH]1
dose: 0.05 mg/kg/injection, schedule: Q01DX009 (ip), vehicle: saline
  T/C: 101 % of control
dose: 0.08 mg/kg/injection, schedule: Q01DX009 (ip), vehicle: saline
  T/C: 106 % of control
dose: 0.14 mg/kg/injection, schedule: Q01DX009 (ip), vehicle: saline
  T/C: 109 % of control
dose: 0.23 mg/kg/injection, schedule: Q01DX009 (ip), vehicle: saline
  T/C: 112 % of control
dose: 0.23 mg/kg/injection, schedule: Q04DX003 (ip), vehicle: saline
  T/C: 107 % of control
dose: 0.39 mg/kg/injection, schedule: Q04DX003 (ip), vehicle: saline
  T/C: 109 % of control
dose: 0.65 mg/kg/injection, schedule: Q01DX001 (ip), vehicle: saline
  T/C: 115 % of control
dose: 0.65 mg/kg/injection, schedule: Q04DX003 (ip), vehicle: saline
  T/C: 113 % of control
dose: 1.1 mg/kg/injection, schedule: Q01DX009 (ip), vehicle: saline
  T/C: 167 % of control
dose: 1.1 mg/kg/injection, schedule: Q04DX003 (ip), vehicle: saline
  T/C: 151 % of control
dose: 1.8 mg/kg/injection, schedule: Q01DX009 (ip), vehicle: saline
  T/C: 115 % of control
dose: 1.8 mg/kg/injection, schedule: Q04DX003 (ip), vehicle: saline
  T/C: 182 % of control
dose: 3.0 mg/kg/injection, schedule: Q01DX001 (ip), vehicle: saline
  T/C: 163 % of control
dose: 5.0 mg/kg/injection, schedule: Q01DX001 (ip), vehicle: saline
  T/C: 221 % of control
dose: 5.0 mg/kg/injection, schedule: Q04DX003 (ip), vehicle: saline
  T/C: 91 % of control
dose: 8.4 mg/kg/injection, schedule: Q01DX001 (ip), vehicle: saline
  T/C: 110 % of control

## CCOC(=O)C12CC=CC(CCC1)/C2=N\Nc1ccccc1 (stereo unspecified)
dose: 100.0 mg/kg/injection, schedule: Q01DX009 (ip), vehicle: saline with Tween-80
  T/C: 108 % of control
dose: 100.0 mg/kg/injection, schedule: Q04DX003 (ip), vehicle: saline with Tween-80
  T/C: 105 % of control
dose: 200.0 mg/kg/injection, schedule: Q01DX009 (ip), vehicle: saline with Tween-80
  T/C: 103 % of control
dose: 200.0 mg/kg/injection, schedule: Q04DX003 (ip), vehicle: saline with Tween-80
  T/C: 103 % of control
dose: 400.0 mg/kg/injection, schedule: Q01DX009 (ip), vehicle: saline with Tween-80
  T/C: 103 % of control
dose: 400.0 mg/kg/injection, schedule: Q04DX003 (ip), vehicle: saline with Tween-80
  T/C: 92 % of control

## NC(=O)CC(C1SCCCS1)N1C(=O)OC2C(O)C(CO)OC21 (stereo unspecified)
dose: 10.94 mg/kg/injection, schedule: Q01DX005 (ip), vehicle: water
  T/C: 100 % of control
dose: 21.88 mg/kg/injection, schedule: Q01DX005 (ip), vehicle: water
  T/C: 93 % of control
dose: 43.75 mg/kg/injection, schedule: Q01DX005 (ip), vehicle: water
  T/C: 98 % of control
dose: 87.5 mg/kg/injection, schedule: Q01DX005 (ip), vehicle: water
  T/C: 100 % of control
dose: 175.0 mg/kg/injection, schedule: Q01DX005 (ip), vehicle: water
  T/C: 90 % of control

## CC(=O)C1=C2c3ccccc3C(=O)c3c(Br)cc(S(=O)(=O)O)c(c32)NC1
dose: 100.0 mg/kg/injection, schedule: Q01DX001 (ip), vehicle: saline with Tween-80
  T/C: 94 % of control
dose: 200.0 mg/kg/injection, schedule: Q01DX001 (ip), vehicle: saline with Tween-80
  T/C: 94 % of control
dose: 400.0 mg/kg/injection, schedule: Q01DX001 (ip), vehicle: saline with Tween-80
  T/C: 90 % of control
